Legend:
[1] = Inhibition of porcine succinate-cytochrome c reductase using succinate and cytochrome c as substrate by spectrophotometric analysis; parameters: species or system Sus scrofa
Sus scrofa [2] = species on record: Sus scrofa; assay: Inhibition of porcine succinate-cytochrome c reductase complex 3 at 10 uM using decylubiquinol and cytochrome c as substrate by spectrophotometric analysis relative to control
Sus scrofa [3] = species on record: Sus scrofa; assay: Inhibition of porcine succinate-cytochrome c reductase at 10 uM using succinate and cytochrome c as substrate by spectrophotometric analysis relative to control
Sus scrofa [4] = species on record: Sus scrofa; assay: Inhibition of porcine succinate-cytochrome c reductase complex 2 at 10 uM using succinate and dichlorophenolindophenol as substrate by spectrophotometric analysis relative to control

| SMILES | IC50 [1] | inhibition (Sus scrofa [2]) | inhibition (Sus scrofa [3]) | inhibition (Sus scrofa [4]) |
| --- | --- | --- | --- | --- |
| Clc1ccc(Nc2ccc(Oc3ccccc3)cc2)cc1 | 0.464 µM |  |  |  |
| Clc1ccc(Oc2ccc(Nc3ccccc3)cc2Cl)c(Cl)c1 | 0.043 µM |  |  |  |
| CO/C=C(\C(=O)OC)c1ccccc1Oc1cc(Oc2ccccc2C#N)ncn1 [Azoxystrobin] | 0.287 µM | 92% | 99% | 23% |
| c1ccc(COc2ccc(Oc3ccc(Nc4ccccc4)cc3)cc2)cc1 | > 10 µM |  |  |  |
| Cc1ccccc1Nc1ccc(Oc2ccccc2)cc1 | > 10 µM |  |  |  |
| Fc1ccccc1Oc1ccc(Nc2ccccc2)cc1 | > 10 µM |  |  |  |
| N#Cc1ccccc1Oc1ccc(Nc2ccccc2)cc1 | > 10 µM |  |  |  |
| Fc1cccc(Oc2ccc(Nc3ccccc3)cc2)c1F | 1.45 µM |  |  |  |
| Brc1ccccc1Oc1ccc(Nc2ccccc2)cc1 | > 10 µM |  |  |  |
| Clc1cc(Nc2ccccc2)cc(Cl)c1Oc1ccc2ccccc2c1 | 0.03 µM | 15% | 78% | 42% |
| c1ccc(Nc2ccc(Oc3ccccc3)cc2)cc1 | > 10 µM |  |  |  |
| Clc1ccc(Oc2ccc(Nc3ccccc3)cc2)c(Cl)c1 | 0.172 µM |  |  |  |
| COc1ccc(Oc2ccc(Nc3ccccc3)cc2)cc1 | > 10 µM |  |  |  |
| Cc1ccc(Nc2ccc(Oc3ccccc3)cc2)cc1 | > 10 µM |  |  |  |
| Cc1cccc(Nc2ccc(Oc3ccccc3)cc2)c1 | > 10 µM |  |  |  |
| FC(F)(F)c1ccc(Nc2ccc(Oc3ccccc3)cc2)cc1 | 0.201 µM |  |  |  |
| Clc1ccc(Oc2c(Cl)cc(Nc3ccccc3)cc2Cl)c(Cl)c1 | 0.041 µM |  |  |  |
| Fc1ccc(Br)cc1Oc1ccc(Nc2ccccc2)cc1 | > 10 µM |  |  |  |
| CC(C)CC(C)c1sccc1NC(=O)c1cn(C)nc1C(F)(F)F (stereo not drawn) [PENTHIOPYRAD] | 1.32 µM | < 10% | 82% | 90% |
| Brc1cc(Nc2ccccc2)ccc1Oc1ccccc1 | 0.323 µM |  |  |  |
| Clc1cc(Cl)c(Oc2c(Cl)cc(Nc3ccccc3)cc2Cl)c(Cl)c1 | 0.021 µM | 13% | 89% | 37% |
| Fc1ccc(Nc2ccc(Oc3ccccc3)cc2)cc1 | > 10 µM |  |  |  |
| Clc1cccc(Nc2ccc(Oc3ccccc3)cc2)c1 | > 10 µM |  |  |  |
| CC(C)(C)c1ccc(Nc2ccc(Oc3ccccc3)cc2)cc1 | > 10 µM |  |  |  |
| Fc1cccc(Nc2ccc(Oc3ccccc3)cc2)c1 | 0.723 µM |  |  |  |
| FC(F)(F)c1cccc(Nc2ccc(Oc3ccccc3)cc2)c1 | 0.362 µM |  |  |  |

— ChEMBL document CHEMBL4184314, “Synthesis of new 4-aryloxy-N-arylanilines and their inhibitory activities against succinate-cytochrome c reductase” (Bioorg Med Chem Lett, 2018)
